Experimental findings from patent US20160002204A1 (Board of Regents, The University of Texas System, priority 2014, published 2016) are described below.

In assay [1] the test system is A549 cells. As to the kind of experiment: A549 proliferation (viability) assay, Cell Titer Fluor, 72 hours. It counts as cell-based. The following applies: Homo sapiens. The procedure, abridged:
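A549 cells in RPMI 1640 with 10% dialyzed FBS were seeded at 1000 cells/well, grown 24 h, then exposed to compound (0.5% DMSO final) for 72 h at 37 °C, 5% CO2. Viability was read by Cell Titer Fluor fluorescence; EC50 from four-parameter logistic fit.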

The target in assay [2] is T1, GLS1 (purified recombinant human GAC) (Homo sapiens, UniProt O94925).
T1 sequence (O94925 55-598 isoform O94925-3 limits assumed): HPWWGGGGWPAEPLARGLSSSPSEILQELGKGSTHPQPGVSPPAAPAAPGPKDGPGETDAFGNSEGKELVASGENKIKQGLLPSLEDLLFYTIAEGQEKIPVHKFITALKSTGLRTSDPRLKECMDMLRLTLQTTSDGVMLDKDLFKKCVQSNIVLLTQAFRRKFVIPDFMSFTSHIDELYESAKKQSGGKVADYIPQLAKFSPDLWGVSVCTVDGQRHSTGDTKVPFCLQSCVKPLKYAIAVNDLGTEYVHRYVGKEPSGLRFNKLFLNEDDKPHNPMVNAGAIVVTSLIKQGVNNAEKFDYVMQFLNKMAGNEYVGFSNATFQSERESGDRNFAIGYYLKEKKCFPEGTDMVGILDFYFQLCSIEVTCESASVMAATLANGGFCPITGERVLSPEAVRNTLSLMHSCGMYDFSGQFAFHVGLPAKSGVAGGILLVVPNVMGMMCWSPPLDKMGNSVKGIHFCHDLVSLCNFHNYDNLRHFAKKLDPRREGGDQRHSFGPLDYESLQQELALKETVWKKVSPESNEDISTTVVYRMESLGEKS
As to the kind of experiment: GLS1 enzymatic activity assay (dual-coupled, Amplex UltraRed/resorufin). It counts as biochemical. The procedure, abridged:
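GAC activity measured by coupling glutamate to glutamate oxidase and HRP, generating resorufin from Amplex UltraRed. Enzyme (2 nM) preincubated with 50 mM potassium phosphate 10 min at room temperature, then inhibitor 10 min; 1 mM glutamine substrate, 1% DMSO. Fluorescence 530/590 nm, kinetic or 20-min endpoint; IC50 from four-parameter logistic fit.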

On to `NC(=O)c1cn(CC(F)CCn2ccc(NC(=O)CC3CCC3)c(F)c2=O)nn1` (centres unmarked) [Example 391, 1-{4-[4-(2-cyclobutylacetamido)-3-fluoro-2-oxo-1,2-dihydropyridin-1-yl]-2-fluorobutyl}-1H-1,2,3-triazole-4-carboxamide], for which the half-maximal effective concentration (EC50) (in general, the concentration needed to bring the measured effect to its halfway point) in assay [1] was above 5000 nM. In addition, the IC50 (usually the point on the concentration scale where inhibition reaches its midpoint) in assay [2] was 500 to 5000 nM.

For the compound `O=C(NCc1cc(C(F)(F)F)ccn1)c1cn(CC(F)CCn2ccc(NC(=O)[C@@H](O)c3ccccc3)c(F)c2=O)nn1` (stereo partly drawn) [Example 326, 1-(2-fluoro-4-{3-fluoro-4-[(2S)-2-hydroxy-2-phenylacetamido]-2-oxo-1,2-dihydropyridin-1-yl}butyl)-N-{[4-(trifluoromethyl)pyridin-2-yl]methyl}-1H-1,2,3-triazole-4-carboxamide], the 50% effective concentration (EC50) in assay [1] is below 100 nM. Moreover, the half-inhibitory concentration (IC50) in assay [2] is below 100 nM.

In assay [1], `CC(C)(C)OC(=O)Nc1ccn(CCC(F)Cn2cc(C(=O)NCc3cc(C(F)(F)F)ccn3)nn2)c(=O)c1F` (centres unmarked) [Example 320, tert-butyl N-(3-fluoro-1-{3-fluoro-4-[4-({[4-(trifluoromethyl)pyridin-2-yl]methyl}carbamoyl)-1H-1,2,3-triazol-1-yl]butyl}-2-oxo-1,2-dihydropyridin-4-yl)carbamate] gave an EC50 of 100 to 500 nM. Also, in assay [2], the IC50 was 100 to 500 nM.

Take `O=C(CC1CCCCC1)Nc1ccn(CCCCn2cc(C(=O)NCc3cc(Cl)ccc3F)nn2)c(=O)c1` [Example 181, N-[(5-chloro-2-fluorophenyl)methyl]-1-{4-[4-(2-cyclohexylacetamido)-2-oxo-1,2-dihydropyridin-1-yl]butyl}-1H-1,2,3-triazole-4-carboxamide]: the EC50 in assay [1] lay within 100 to 500 nM. In addition, in assay [2], the IC50 is below 100 nM.

In assay [1], `O=C(Cc1ccccc1)Nc1ccc(CCCCn2ccc(NC(=O)OC3CCCCC3)nc2=O)nn1` [Example 95, cyclohexyl N-(2-oxo-1-{4-[6-(2-phenylacetamido)pyridazin-3-yl]butyl}-1,2-dihydropyrimidin-4-yl)carbamate] registered an EC50 below 100 nM. The IC50 in assay [2] is below 100 nM.

`O=C(Cc1nccs1)Nc1ccn(CCC(F)Cn2cc(C(=O)NCc3cccc(OC(F)(F)F)c3)nn2)c(=O)c1` (centres unmarked) [Example 252, 1-(2-fluoro-4-{2-oxo-4-[2-(1,3-thiazol-2-yl)acetamido]-1,2-dihydropyridin-1-yl}butyl)-N-{[3-(trifluoromethoxy)phenyl]methyl}-1H-1,2,3-triazole-4-carboxamide] showed an EC50 in assay [1] of 100 to 500 nM. The IC50 in assay [2] is below 100 nM.

For `CC(C)CNC(=O)Nc1nnc(CCCCn2ccc(NC(=O)CC3CCCC3)c(F)c2=O)s1` [Example 128, 2-cyclopentyl-N-(3-fluoro-1-(4-(5-(3-isobutylureido)-1,3,4-thiadiazol-2-yl)butyl)-2-oxo-1,2-dihydropyridin-4-yl)acetamide], in assay [1], the EC50 was above 5000 nM. In assay [2], the IC50 lay within 100 to 500 nM.

For the compound `O=C(Cc1ccccc1)Nc1ccn(CCCCc2nnc(NC(=O)Cc3cccnc3)s2)c(=O)n1` [Example 16, N-(2-oxo-1-(4-(5-(2-(pyridin-3-yl)acetamido)-1,3,4-thiadiazol-2-yl)butyl)-1,2-dihydropyrimidin-4-yl)-2-phenylacetamide], the 50% effective concentration (EC50) in assay [1] lay within 500 to 5000 nM. The IC50 in assay [2] was below 100 nM.

As for `CCN(CC)C(=O)C(=O)Nc1ccn(CCC(F)Cn2cc(C(=O)NCc3cccc(OC(F)(F)F)c3)nn2)c(=O)c1F` (centres unmarked) [Example 425, N,N-diethyl-N′-(3-fluoro-1-{3-fluoro-4-[4-({[3-(trifluoro-methoxy)phenyl]methyl}carbamoyl)-1H-1,2,3-triazol-1-yl]butyl}-2-oxo-1,2-dihydropyridin-4-yl)ethanediamide], the EC50 in assay [1] lay in the range of 100 to 500 nM. In assay [2], the IC50 was below 100 nM.

`Cc1ccc(CNC(=O)c2nnc(CCCCn3ccc(NC(=O)CN4CCCCC4)c(F)c3=O)s2)cn1` [Example 462, 5-(4-{3-fluoro-2-oxo-4-[2-(piperidin-1-yl)acetamido]-1,2-dihydropyridin-1-yl}butyl)-N-[(6-methylpyridin-3-yl)methyl]-1,3,4-thiadiazole-2-carboxamide] came in with an EC50 in assay [1] of 100 to 500 nM. Also, the IC50 in assay [2] was 100 to 500 nM.
